{"source": "patent US8101649B2", "about": "“N-acylhydrazone derivatives useful as modulators of nicotinic acetylcholine receptors” (Neurosearch A/S, priority 2007, dated 2012)", "data": [{"target": "T1, wild-type nAChR α7 receptors (Homo sapiens, UniProt P36544)", "T1 construct": "expressed in transfected cells; host or cells: Xenopus laevis oocytes", "T1 sequence (P36544 23-502)": "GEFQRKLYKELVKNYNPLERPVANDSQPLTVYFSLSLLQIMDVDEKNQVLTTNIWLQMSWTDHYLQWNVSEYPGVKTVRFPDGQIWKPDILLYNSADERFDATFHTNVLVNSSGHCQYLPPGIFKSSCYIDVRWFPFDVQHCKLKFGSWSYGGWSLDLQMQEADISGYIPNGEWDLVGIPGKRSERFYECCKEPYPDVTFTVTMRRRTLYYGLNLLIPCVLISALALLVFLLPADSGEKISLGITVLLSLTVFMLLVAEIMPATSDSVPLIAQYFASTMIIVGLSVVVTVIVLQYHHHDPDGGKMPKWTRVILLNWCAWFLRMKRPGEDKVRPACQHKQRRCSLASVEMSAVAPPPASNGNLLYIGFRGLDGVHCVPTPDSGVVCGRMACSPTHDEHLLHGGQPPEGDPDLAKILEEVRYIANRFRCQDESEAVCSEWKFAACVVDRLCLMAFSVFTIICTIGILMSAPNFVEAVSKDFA", "test": "Positive modulation of acetylcholine-induced currents at nAChR α7 receptors expressed in Xenopus laevis oocytes (two-electrode voltage clamp)", "assay_type": "cell-based", "settings": "100 μM acetylcholine; (test-control)/control*100%; fitted to the sigmoidal logistic equation", "protocol": "(§1) In this example the positive modulation of wild-type nAChR α7 receptors by Compound 3 (FIGS. 1A and 1B) was determined using nAChR α7 receptors heterologously expressed in Xenopus laevis oocytes.\n(§2) The electrical current through the nAChR α7 channel was measured using conventional two-electrode voltage clamp and nAChR α7 currents were activated by applying pulses of agonist-containing solution onto the nAChR α7 expressing oocyte.\n(§3) In brief, the oocytes were placed in a recording chambers and continuously superfused with an Oocyte Ringer (OR) solution containing 90 mM NaCl, 2.5 mM KCl, 2.5 mM CaCl2, 1 mM MgCl2 and 5 mM HEPES (pH adjusted to 7.4). The oocytes were clamped at −60 mV and currents were induced by applying 20 s pulses of 100 μM acetylcholine dissolved in OR. The intervals between the acetylcholine applications were 5 minutes, during which the oocytes were washed with OR. The first three applications were control applications to insure a constant response level of 100 μM acetylcholine.\n(§4) The positive modulation in the presence of Compound 3 was calculated as (test-control)/control*100% and the concentration response curve for this positive modulation was fitted to the sigmoidal logistic equation: I=Imax/(1+(EC50/[compound])^n), where Imax represents the maximal modulation of the control response, EC50 is the concentration causing a half maximal response, and n is the slope coefficient.", "units": {"Imax (maximal modulation of the acetylcholine control response)": "%"}, "values": [{"smiles": "O=C(CCc1c[nH]c2ccccc12)N/N=C/c1ccc(F)cc1", "note": "[Compound 3, 3-(1H-Indol-3-yl)-propionic acid [1-(4-fluoro-phenyl)-meth-(E)-ylidene]-hydrazide]", "Imax (maximal modulation of the acetylcholine control response)": 140}]}, {"target": "T1, wild-type nAChR α7 receptors", "test": "Positive modulation of acetylcholine-induced currents at nAChR α7 receptors expressed in Xenopus laevis oocytes (two-electrode voltage clamp)", "assay_type": "cell-based", "settings": "100 μM acetylcholine; oocytes clamped at −60 mV; 0.01-31.6 μM compound applied 30 s before and during acetylcholine; read-out: EC50 (concentration causing a half maximal response) for positive modulation of acetylcholine responses", "protocol": "as §1, §2, §3, §4", "units": {"EC50": "µM"}, "values": [{"smiles": "O=C(CCc1c[nH]c2ccccc12)N/N=C/c1ccc(F)cc1", "note": "[Compound 3, 3-(1H-Indol-3-yl)-propionic acid [1-(4-fluoro-phenyl)-meth-(E)-ylidene]-hydrazide]", "EC50": 4.1}]}, {"target": "T1, wild-type nAChR α7 receptors", "test": "Positive modulation of acetylcholine-induced currents at nAChR α7 receptors expressed in Xenopus laevis oocytes (two-electrode voltage clamp)", "assay_type": "cell-based", "settings": "0.01-31.6 μM compound with 100 μM acetylcholine", "protocol": "as §1, §2, §3, §4", "values": [{"smiles": "O=C(CCc1c[nH]c2ccccc12)N/N=C/c1ccc(F)cc1", "note": "[Compound 3, 3-(1H-Indol-3-yl)-propionic acid [1-(4-fluoro-phenyl)-meth-(E)-ylidene]-hydrazide]", "effect on acetylcholine-induced current amplitude": "robust increase"}]}, {"test_system": "not given", "test": "not given", "settings": "not given", "units": {"melting point": "°C"}, "values": [{"smiles": "COc1ccc(/C=N/NC(=O)CCc2c[nH]c3ccccc23)cc1", "note": "[Compound 3B, 3-(1H-Indol-3-yl)-propionic acid [1-(4-methoxy-phenyl)-meth-(E)-ylidene]-hydrazide]", "melting point": "168.3 to 169.7"}, {"smiles": "O=C(CCc1c[nH]c2ccccc12)N/N=C/c1ccsc1", "note": "[Compound 3D, 3-(1H-Indol-3-yl)-propionic acid [1-thiophen-3-yl-meth-(E)-ylidene]-hydrazide]", "melting point": "145.5 to 148.1"}, {"smiles": "O=C(CCc1c[nH]c2ccccc12)N/N=C1\\CCCc2ccccc21", "note": "[Compound 3L, 3-(1H-Indol-3-yl)-propionic acid [3,4-dihydro-2H-naphthalen-(1E)-ylidene]-hydrazide]", "melting point": "119.3 to 120.2"}, {"smiles": "O=C(CCc1c[nH]c2ccccc12)N/N=C/c1ccccc1F", "note": "[Compound 3E, 3-(1H-Indol-3-yl)-propionic acid [1-(2-fluoro-phenyl)-meth-(E)-ylidene]-hydrazide]", "melting point": "118 to 123"}, {"smiles": "O=C(CCc1c[nH]c2ccc(F)cc12)N/N=C/c1ccccc1F", "note": "[Compound 3J, 3-(5-Fluoro-1H-indol-3-yl)-propionic acid [1-(2-fluoro-phenyl)-meth-(E)-ylidene]-hydrazide]", "melting point": "132.8 to 134"}, {"smiles": "O=C(CCc1c[nH]c2ccccc12)N/N=C/c1cccs1", "note": "[Compound 3F, 3-(1H-Indol-3-yl)-propionic acid [1-thiophen-2-yl-meth-(E)-ylidene]-hydrazide]", "melting point": "146.5 to 149.4"}, {"smiles": "C/C(=N\\NC(=O)CCc1c[nH]c2ccccc12)c1ccccc1", "note": "[Compound 3K, 3-(1H-Indol-3-yl)-propionic acid [1-phenyl-eth-(E)-ylidene]-hydrazide]", "melting point": "156.2 to 158.2"}, {"smiles": "O=C(CCc1c[nH]c2ccc(F)cc12)N/N=C/c1ccc(F)cc1", "note": "[Compound 3M, 3-(5-Fluoro-1H-indol-3-yl)-propionic acid [1-(4-fluoro-phenyl)-meth-(E)-ylidene]-hydrazide]", "melting point": "213.8 to 215.3"}, {"smiles": "CC1=C/C(=N/NC(=O)CCc2c[nH]c3ccccc23)c2ccccc2C1=O", "note": "[Compound 3N, 3-(1H-Indol-3-yl)-propionic acid [3-methyl-4-oxo-4H-naphthalen-(1Z)-ylidene]-hydrazide]", "melting point": "248.6 to 249.5"}, {"smiles": "O=C(CCc1c[nH]c2ccccc12)N/N=C/c1ccccc1", "note": "[Compound 3A, 3-(1H-Indol-3-yl)-propionic acid [1-phenyl-meth-(E)-ylidene]-hydrazide]", "melting point": "169.8 to 171.2"}, {"smiles": "O=C(CCc1c[nH]c2ccccc12)N/N=C/c1ccc(Cl)cc1", "note": "[Compound 3G, 3-(1H-Indol-3-yl)-propionic acid [1-(4-chloro-phenyl)-meth-(E)-ylidene]-hydrazide]", "melting point": "201.5 to 202.5"}, {"smiles": "O=C(CCc1c[nH]c2ccc(F)cc12)N/N=C/c1ccccc1", "note": "[Compound 3I, 3-(5-Fluoro-1H-indol-3-yl)-propionic acid [1-phenyl-meth-(E)-ylidene]-hydrazide]", "melting point": "171.2 to 173.9"}]}]}
